This passage reports susceptibility call results from patent US20220282304A1, “SAME-SAMPLE ANTIBIOTIC SUSCEPTIBILITY TEST AND RELATED COMPOSITIONS, METHODS AND SYSTEMS” (CALIFORNIA INSTITUTE OF TECHNOLOGY, priority 2021, published 2022).

Molecules are shown by their SMILES.

For the test, the system named is Escherichia coli isolate. In words: Same-sample AST, bulk: filtration, RT-ddPCR of 23S rRNA, percent extracellular (Example 1). It counts as cell-based. To be noted: 1.0 μg/mL ETP, 37° C. 60 minutes; lower bound of 95% Poisson CI of percent extracellular vs threshold (control mean + 2 SD); three replicates. The method, then:
The inoculum was small enough that no detectable difference in the sample's optical density at 600 mm (OD600) was detectable by a spectrophotometer with a sensitivity of 0.01 absorbance units. After an incubation at 37° C., the media became turbid with an OD600 of 0.26 absorbance units after 2 hours of incubation thus providing a bacteria batch culture.
To begin the AST protocol, 10 μL of the above bacteria batch culture was added to and mixed with 15 μL of Mueller-Hinton Broth (MHB) growth media containing 1.67 μg/mL of dissolved ertapenem (ETP) antibiotic to create a test condition antibiotic exposure with a final ETP concentration of 1.0 μg/mL.
In parallel, 10 μL of the batch culture was added to and mixed with 15 μL of Mueller-Hinton Broth (MHB) growth media containing no ETP to create a control condition antibiotic exposure corresponding to the 1 μg/mL test condition. The two antibiotic exposures were incubated at 37° C. for 60 minutes.
The entire volume of each antibiotic exposure was transferred to an individual cellulose acetate filter with a 0.2 μm pore size. Fluid that passes through the filter, called the “filtrate”, was collected in a clean microcentrifuge tube. The antibiotic exposures were centrifuged at 2200 relative centrifugal force to speed the passage of the antibiotic exposure through the filter and into the collecting vessel. […]

On to `C[C@@H](O)[C@H]1C(=O)N2C(C(=O)O)=C(S[C@@H]3CN[C@H](C(=O)Nc4cccc(C(=O)O)c4)C3)[C@H](C)[C@H]12` [ETP, ertapenem], for which the susceptibility call is “susceptible”.
